ChEMBL document CHEMBL1153253, “Imidazolinones as nonpeptide angiotensin II receptor antagonists” (Bioorg Med Chem Lett, 1994)

Experiments:
[1] = biological target: T1, Type-2 angiotensin II receptor (Homo sapiens, UniProt P50052); assay: The compound was tested for the ability to displace 50% of totally specifically bound [125I]- Ang II from Angiotensin II receptor, type 2
T1 sequence (P50052 whole entry): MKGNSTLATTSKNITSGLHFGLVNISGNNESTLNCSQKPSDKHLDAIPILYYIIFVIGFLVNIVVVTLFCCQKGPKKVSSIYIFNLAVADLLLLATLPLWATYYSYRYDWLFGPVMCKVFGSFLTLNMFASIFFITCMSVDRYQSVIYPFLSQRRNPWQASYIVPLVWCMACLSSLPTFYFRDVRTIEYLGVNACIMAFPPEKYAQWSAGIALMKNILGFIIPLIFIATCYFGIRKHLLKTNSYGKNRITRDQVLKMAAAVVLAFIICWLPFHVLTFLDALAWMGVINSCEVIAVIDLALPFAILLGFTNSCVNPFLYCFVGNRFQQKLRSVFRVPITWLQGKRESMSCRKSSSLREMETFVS

[2] = biological target: T2, Type-1 angiotensin II receptor A (Rattus norvegicus, UniProt P25095); assay: Displacement of [125I]- Ang II from type 1 Angiotensin II receptor
T2 sequence (P25095 whole entry): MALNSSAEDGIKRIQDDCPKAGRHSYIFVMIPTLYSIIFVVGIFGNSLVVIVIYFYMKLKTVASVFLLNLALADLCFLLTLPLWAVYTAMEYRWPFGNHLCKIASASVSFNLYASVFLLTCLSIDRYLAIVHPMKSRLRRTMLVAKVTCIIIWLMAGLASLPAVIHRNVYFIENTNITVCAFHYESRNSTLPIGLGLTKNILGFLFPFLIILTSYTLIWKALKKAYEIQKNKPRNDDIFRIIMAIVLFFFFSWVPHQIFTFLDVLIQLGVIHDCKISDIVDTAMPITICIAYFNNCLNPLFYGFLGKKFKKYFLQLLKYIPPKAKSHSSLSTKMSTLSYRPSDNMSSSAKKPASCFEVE

Rattus norvegicus = assay: Effective dose required to lower blood pressure by 30 mm Hg in renal hypertensive rats following intravenous administration; assay type: functional
[3] = biological target: T3, Type-1 angiotensin II receptor (Homo sapiens, UniProt P30556); assay: The compound was tested for the ability to displace 50% of totally specifically bound [125I]- Ang II from Angiotensin II receptor, type 1 site
T3 sequence (P30556 whole entry): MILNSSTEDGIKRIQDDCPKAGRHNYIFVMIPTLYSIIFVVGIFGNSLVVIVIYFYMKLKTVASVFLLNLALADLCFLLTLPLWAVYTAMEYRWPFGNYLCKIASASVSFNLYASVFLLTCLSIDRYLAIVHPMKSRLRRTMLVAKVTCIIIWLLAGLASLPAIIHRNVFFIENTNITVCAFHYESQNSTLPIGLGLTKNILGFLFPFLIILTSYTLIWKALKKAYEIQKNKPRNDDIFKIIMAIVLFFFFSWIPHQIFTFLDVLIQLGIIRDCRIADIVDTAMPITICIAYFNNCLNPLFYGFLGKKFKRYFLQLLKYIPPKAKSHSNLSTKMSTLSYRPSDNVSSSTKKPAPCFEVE

Row | Structure (SMILES) | IC50 [1] [nM] | IC50 [2] [nM] | ED30 (Rattus norvegicus) [mg/kg] | IC50 [3] [nM]
1 | CCCCC1=NC2(CCCC2)C(=O)N1Cc1ccc(-c2ccccc2S(=O)(=O)NC(=O)c2ccccc2)cc1 | 100 | 1 | 0.29 | –
2 | CCCC1=NC2(CCSCC2)C(=O)N1Cc1ccc(-c2ccccc2-c2nnn[nH]2)cc1 | – | – | 0.26 | 2
3 | CCCC1=NC2(CC2)C(=O)N1Cc1ccc(-c2ccccc2-c2nn[nH]n2)cc1 | – | 3 | 0.54 | –
4 | CCCC1=NC2(CCCCC2)C(=O)N1Cc1ccc(-c2ccccc2-c2nnn[nH]2)cc1 | – | 3 | 0.25 | –
5 | CCCC1=NC2(CCCC2)C(=O)N1Cc1ccc(-c2ccccc2S(=O)(=O)NC(=O)c2ccccc2)cc1 | 300 | 9 | 0.14 | –
6 | CCCC1=NC(C(F)(F)F)(C(F)(F)F)C(=O)N1Cc1ccc(-c2ccccc2-c2nn[nH]n2)cc1 | – | 20 | – | –
7 | CCCC1=NC(C)(C)C(=O)N1Cc1ccc(-c2ccccc2-c2nn[nH]n2)cc1 | – | 4 | 0.36 | –
8 | CCCC1=NC(c2ccccc2)(c2ccccc2)C(=O)N1Cc1ccc(-c2ccccc2-c2nn[nH]n2)cc1 | – | 300 | – | –
9 | CCCC1=NC(C)(C)C(=O)N1Cc1ccc(-c2ccccc2S(=O)(=O)NC(=O)c2ccccc2)cc1 | 200 | 3 | 0.17 | –
10 | CCCC1=NC2(CCCC2)C(=O)N1Cc1ccc(-c2ccccc2-c2nnn[nH]2)cc1 | – | 0.9 | 0.32 | –
11 | O=C1N(Cc2ccc(-c3ccccc3-c3nn[nH]n3)cc2)C(c2ccccc2)=NC1(c1ccccc1)c1ccccc1 | – | 1400 | – | –
12 | CC1=NC(c2ccccc2)(c2ccccc2)C(=O)N1Cc1ccc(-c2ccccc2-c2nnn[nH]2)cc1 | – | 100 | – | –
13 | CCCC1=NC2(CCSCC2)C(=O)N1Cc1ccc(-c2ccccc2S(=O)(=O)NC(=O)c2ccccc2)cc1 | 200 | 1 | 0.29 | –
14 | CCCC1=NC2(CCOCC2)C(=O)N1Cc1ccc(-c2ccccc2-c2nn[nH]n2)cc1 | – | 8 | 0.2 | –
15 | CCCCC1=NC2(CCCC2)C(=O)N1Cc1ccc(-c2ccccc2-c2nnn[nH]2)cc1 [IRBESARTAN] | – | 0.9 | 0.16 | –
